Assay results reported in ChEMBL document CHEMBL5214948, “Boronic Acid: A Novel Pharmacophore Targeting Src Homology 2 (SH2) Domain of STAT3” (J Med Chem, 2022).
pIC50, pKd: −log10 of the molar value. The source made the active and inactive calls. The calls are words filed in the database; no cut-off is given here.

Experiments:
MGC-803 [1] = experiment: Inhibition of colony formation in human MGC-803 cells at 1 uM incubated for 10 to 15 days by crystal violet staining based assay; format: functional, cell-based; conditions: time 10-15 day
AGS [2] = experiment: Antiproliferative activity against human AGS cells assessed as reduction in cell viability incubated for 72 hrs by CCK-8 assay; format: functional, cell-based
MGC-803 [3] = experiment: Antiproliferative activity against human MGC-803 cells assessed as reduction in cell viability measured after 72 hrs by CCK-8 assay; format: functional, cell-based; conditions: MGC-803, 72 h
[4] = Half life in ICR mouse at 5 mg/kg, iv measured upto 24 hrs by LC-MS/MS analysis; format: ADME, organism-based; conditions: in vivo
[5] = Cmax in ICR mouse at 5 mg/kg, iv measured upto 24 hrs by LC-MS/MS analysis; format: ADME, organism-based; design: time < 24 hrs, dose 5 mg/kg, route iv; conditions: in vivo
in vivo [6] = format: ADME, organism-based; conditions: ICR, mouse, iv, 5 mg/kg
in vivo [7] = format: ADME, organism-based; conditions: ICR, mouse, iv, 5 mg/kg; remark: listed apart in the source
[8] = Clearance in ICR mouse at 5 mg/kg, iv measured upto 24 hrs by LC-MS/MS analysis; format: ADME, organism-based; conditions: in vivo
[9] = Volume of distribution at steady state in ICR mouse at 5 mg/kg, iv measured upto 24 hrs by LC-MS/MS analysis; format: ADME, organism-based; conditions: in vivo, read-out: Vdss
[10] = molecular target: T1, Signal transducer and activator of transcription 3 (Homo sapiens, UniProt P40763); experiment: Binding affinity to full length wild type STAT3-SH2 domain (unknown origin) assessed as association constant by SPR analysis
T1 sequence (P40763 whole entry, the tested form may be a part): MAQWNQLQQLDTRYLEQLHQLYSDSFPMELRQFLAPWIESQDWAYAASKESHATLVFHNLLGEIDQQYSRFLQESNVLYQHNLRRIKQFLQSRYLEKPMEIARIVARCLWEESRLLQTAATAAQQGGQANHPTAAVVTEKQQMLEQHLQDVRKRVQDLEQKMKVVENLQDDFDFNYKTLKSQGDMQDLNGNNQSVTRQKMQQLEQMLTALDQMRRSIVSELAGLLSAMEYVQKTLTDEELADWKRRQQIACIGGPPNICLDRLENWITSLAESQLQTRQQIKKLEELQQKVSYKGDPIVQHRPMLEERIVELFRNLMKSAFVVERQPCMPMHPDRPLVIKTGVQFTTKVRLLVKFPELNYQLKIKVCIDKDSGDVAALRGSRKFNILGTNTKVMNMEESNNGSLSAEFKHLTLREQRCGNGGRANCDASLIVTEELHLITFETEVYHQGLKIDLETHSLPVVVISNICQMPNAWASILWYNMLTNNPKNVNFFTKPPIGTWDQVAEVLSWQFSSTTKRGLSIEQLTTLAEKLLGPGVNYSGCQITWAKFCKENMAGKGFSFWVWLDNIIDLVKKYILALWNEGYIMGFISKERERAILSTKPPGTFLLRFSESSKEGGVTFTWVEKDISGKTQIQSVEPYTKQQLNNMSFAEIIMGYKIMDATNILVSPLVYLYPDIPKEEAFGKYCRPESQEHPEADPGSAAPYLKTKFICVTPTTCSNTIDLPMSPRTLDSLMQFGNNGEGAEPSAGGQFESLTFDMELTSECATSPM

[11] = molecular target: T1, Signal transducer and activator of transcription 3; experiment: Binding affinity to full length wild type STAT3-SH2 domain (unknown origin) assessed as equilibrium dissociation constant by SPR analysis
[12] = molecular target: T1, Signal transducer and activator of transcription 3; experiment: Binding affinity to full length wild type STAT3-SH2 domain (unknown origin) in human MGC-803 cells assessed as thermal stabilization of protein at 37 to 53 degreeC at 5 uM incubated for 3 hrs by cellular thermal shift assay; format: cell-based
[13] = molecular target: T1, Signal transducer and activator of transcription 3; experiment: Inhibition of STAT3 phosphorylation at Tyr705 residue in human AGS cells incubated for 24 hrs by Western blot analysis; format: cell-based; conditions: dose 1-3 µM, DDE = dose-dependent effect
[14] = molecular target: T1, Signal transducer and activator of transcription 3; experiment: Inhibition of STAT3 phosphorylation at Tyr705 residue in human MGC-803 cells incubated for 24 hrs by Western blot analysis; format: cell-based; conditions: dose 3-5 µM, DDE = dose-dependent effect
[15] = molecular target: T1, Signal transducer and activator of transcription 3; experiment: Inhibition of IL-6 induced FLAG/HA-tagged STAT3 dimerization in human HEK293T cells pretreated for 24 hrs followed by IL-6 stimulation and measured after 1 hr by immunoprecipitation assay; format: cell-based; conditions: time 25.0 hrs, DDE = dose-dependent effect
[16] = molecular target: T1, Signal transducer and activator of transcription 3; experiment: Inhibition of STAT3 transcriptional activity transfected in HEK293T cells at 3 to 5 uM incubated for 24 hrs by dual-ludferase reporter gene assay; format: cell-based; conditions: dose 3-5 µM
[17] = molecular target: T1, Signal transducer and activator of transcription 3; experiment: Inhibition of STAT3 transcriptional activity in human AGS cells assessed as downregulation of C-myc protein expression at 1 to 3 uM incubated for 24 hrs by Western blot analysis; format: cell-based; conditions: dose 1-3 µM
[18] = molecular target: T1, Signal transducer and activator of transcription 3; experiment: Inhibition of STAT3 transcriptional activity in human MGC-803 cells assessed as downregulation of C-myc protein expression at 3 to 5 uM incubated for 24 hrs by Western blot analysis; format: cell-based; conditions: dose 3-5 µM
[19] = molecular target: T1, Signal transducer and activator of transcription 3; experiment: Inhibition of STAT3 transcriptional activity in human AGS cells assessed as downregulation of Bcl-xL protein expression at 1 to 3 uM incubated for 24 hrs by Western blot analysis; format: cell-based; conditions: dose 1-3 µM
[20] = molecular target: T1, Signal transducer and activator of transcription 3; experiment: Inhibition of STAT3 transcriptional activity in human MGC-803 cells assessed as downregulation of Bcl-xL protein expression at 3 to 5 uM incubated for 24 hrs by Western blot analysis; format: cell-based; conditions: dose 3-5 µM
[21] = Antiproliferative activity against […] H9c2 cells assessed as reduction in cell viability incubated for 72 hrs by CCK-8 assay; format: toxicity, cell-based; conditions: rat
AGS [22] = experiment: Antiproliferative activity against human AGS cells assessed as reduction in cell viability at 1 to 3 uM incubated for 72 hrs by Edu incorporation assay; format: functional, cell-based; conditions: dose 1-3 µM
MGC-803 [23] = experiment: Antiproliferative activity against human MGC-803 cells assessed as reduction in cell viability at 3 to 5 uM incubated for 72 hrs by Edu incorporation assay; format: functional, cell-based; conditions: dose 3-5 µM
AGS [24] = experiment: Inhibition of colony formation in human AGS cells at 0.5 uM incubated for 10 to 15 days by crystal violet staining based assay; format: functional, cell-based; conditions: time 10-15 day
AGS [25] = experiment: Induction of apoptosis in human AGS cells at 1 uM incubated for 72 hrs by V-FITC/PI staining based flow cytometry assay; format: functional
AGS [26] = experiment: Induction of apoptosis in human AGS cells at 3 uM incubated for 72 hrs by V-FITC/PI staining based flow cytometry assay; format: functional
MGC-803 [27] = experiment: Induction of apoptosis in human MGC-803 cells at 5 uM incubated for 72 hrs by V-FITC/PI staining based flow cytometry assay; format: functional

In the case of CN(CC(=O)N(Cc1ccc(C2CCCCC2)cc1)c1ccc(B(O)O)cc1)S(=O)(=O)c1c(F)c(F)c(F)c(F)c1F, the inhibition (MGC-803 [1]) was “Active”, the pIC50 (AGS [2]) was 5.81 and the pIC50 (MGC-803 [3]) was 5.33. For the same compound, the half-life [4] was 1.25 h, the Cmax [5] was 1500 ng/mL and the AUC(0-t) at 24 h (in vivo [6]) was 485 ng·h/mL. The AUC(0-inf) at 24 h (in vivo [7]) was 490 ng·h/mL, the clearance [8] was 176 mL/min/kg and the Vd [9] was 18.7 L/kg. For the same compound, the Ka [10] was 1.25 10^3/M/s, the pKd [11] was 5.30 and the Activity [12] was “Active”. The inhibition [13] was “Dde”, the inhibition [14] was “Dde” and the inhibition [15] was “Dde”. For the same compound, the inhibition [16] was “Active”, the inhibition [17] was “Active” and the inhibition [18] was “Active”. For the same compound, the inhibition [19] was “Active”, the inhibition [20] was “Active” and the IC50 at 72 h [21] was 9.05 µM. For the same compound, the Activity (AGS [22]) was “Active”, the Activity (MGC-803 [23]) was “Active” and the inhibition (AGS [24]) was “Active”. The Activity (AGS [25]) was 13%, the Activity (AGS [26]) was 26.7% and the Activity (MGC-803 [27]) was 11.2%.
